Data reported in patent EP4417602A1, “SUBSTITUTED PYRAZOLE CARBOXAMIDES, SALTS THEREOF AND THEIR USE AS HERBICIDALLY ACTIVE SUBSTANCES” (Bayer AG, priority 2023, dated 2024).

Experiments:
[1] = tested on: POLCO; assay: C. Herbicidal pre-emergence action, weed and crop plants (Tables C); assay type: in vivo, Polygonum convolvulus; conditions: application rate 320 g/ha; Table C9
Description: Seeds of mono- and dicotyledonous weed plants and crop plants were sown, in plastic or organic planting pots, in sandy loam and covered with soil. The compounds according to the invention, formulated in the form of wettable powders (WP) or as emulsifiable concentrates (EC), were applied to the surface of the covering soil as aqueous suspension or emulsion, with the addition of 0.5% of an additive, at an application rate of 6001 of water/ha (converted). Following treatment, the pots were placed in a greenhouse and kept under optimum growth conditions for the test plants. The visual grading of the damage to the test plants was carried out after ca. 3 weeks in comparison to untreated controls (herbicidal effect in percent (%): 100% effect = plants have died off, 0% effect = as control plants). Tables C1 to C12 below show the effects of selected compounds of the general formula (I) according to table 1 on various harmful plants and an application rate corresponding to 320 g/ha or below obtained by the experimental procedure mentioned above. Table C1: pre-emergence activity at 320g/ha against KCHSC in %

[2] = tested on: ABUTH; assay: A. Herbicidal pre-emergence action on harmful plants (Tables A); assay type: in vivo, Abutilon theophrasti; conditions: application rate 1280 g/ha; visual grading after ca. 3 weeks vs untreated controls; 100% = plants have died off, 0% = as control plants
Description: Seeds of mono- and dicotyledonous weed plants were sown in plastic pots (double sowings with one species of mono- and one species of dicotyledonous weed plants per pot), in sandy loam, and covered with soil. The compounds according to the invention, formulated in the form of wettable powders (WP) or as emulsifiable concentrates (EC), were applied to the surface of the covering soil as aqueous suspension or emulsion, with the addition of 0.5% of an additive, at an application rate of 6001 of water per hectare (converted). Following treatment, the pots were placed in a greenhouse and kept under optimum growth conditions for the test plants. The visual grading of the damage to the test plants was carried out after ca. 3 weeks in comparison to untreated controls (herbicidal effect in percent (%): 100% effect = plants have died off, 0% effect = as control plants). Tables A1 to A12, below, show the effects of selected compounds of the general formula (I) according to table 1 on various harmful plants and an application rate corresponding to 1280 g/ha or below obtained by the experimental procedure mentioned above. Table A1: pre-emergence activity at 1280g/ha against ABUTH in %

[3] = tested on: MATIN; assay: B. Herbicidal post-emergence action on harmful plants (Tables B); assay type: in vivo, Matricaria inodora; conditions: application rate 1280 g/ha; Table B4a
Method in brief: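 Greenhouse weeds grown in sandy loam were sprayed post-emergence at the one-leaf stage, 2-3 weeks after sowing. Compounds were applied as WP or EC in water with 0.5% additive at 600 L/ha, at 1280 g/ha or below. Visual damage was rated after about 3 weeks versus untreated plants (0-100%).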

[4] = tested on: MATIN; assay: E. Herbicidal post-emergence action, weed and crop plants (Tables E); assay type: in vivo, Matricaria inodora; conditions: application rate 320 g/ha, visual assessment after ca. 3 weeks
Description: Seeds of mono- and dicotyledonous weed plants and crop plants were sown, in plastic or organic planting pots, in sandy loam, covered with soil and grown in a greenhouse under controlled growth conditions. 2 to 3 weeks after sowing, the test plants were sprayed in the single-leaf stage. The compounds according to the invention, formulated in form of wettable powders (WP) or as emulsifiable concentrates (EC), were sprayed onto the green plant parts as aqueous suspension or emulsion, with the addition of 0.5% of an additive, at an application rate of 6001 of water/ha (converted). The test plants were placed in the greenhouse for ca. 3 weeks under optimum growth conditions, and then the effect of the preparations was assessed visually in comparison with untreated controls (herbicidal effect in percent (%): 100% effect = plants have died off, 0% effect = as control plants). Tables E1 to E7 below show the effects of selected compounds of the general formula (I) according to table 1 on various harmful plants and an application rate corresponding to 320 g/ha or below obtained by the experimental procedure mentioned above. Table E1: post-emergence activity at 320g/ha against ALOMY in %

Structure (SMILES): C=C(c1ccccc1F)C1CCCN1C(=O)c1cn(C)nc1COC (racemic) [Example I-023]
- pre-emergence activity against POLCO [1]: 80%

Structure (SMILES): COCc1c(C(=O)N2CCCC2Cc2ccccc2Cl)cnn1C (racemic) [Example I-170]
- pre-emergence activity against ABUTH [2]: 90%
- post-emergence activity against MATIN [3]: 90%
- post-emergence activity against MATIN in % [4]: 80%
